Reference: PubChem BioAssay (NCI)
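Assay format: 96-well plates, 48-hour exposure. The concentration for 50% growth inhibition is given as GI50. At the TGI there is no net growth.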

Assays:
Experiment in all cases: DTP human tumour cell line panel, 48 h; in the data active = GI50 below about 0.43 µM; inactive = the rest
[1] = system: NCI-H522 lung
[2] = system: SN12C renal
[3] = system: HCT-15 colon
[4] = system: SNB-19 CNS
[5] = system: MDA-MB-435
[6] = system: UO-31 renal
[7] = system: MCF7 breast
[8] = system: SF-268 CNS
[9] = system: SK-MEL-5 melanoma
[10] = system: TK-10 renal
[11] = system: K-562 leukemia
[12] = system: BT-549 breast
[13] = system: OVCAR-8 ovarian
[14] = system: RXF 393 renal
[15] = system: MDA-MB-468 breast
[16] = system: SF-539 CNS
[17] = system: HOP-62 NSCLC
[18] = system: SW-620 colon
[19] = system: SK-OV-3 ovarian
[20] = system: COLO 205 colon
[21] = system: A498 renal
[22] = system: SR leukemia
[23] = system: SK-MEL-2 melanoma
[24] = system: HS 578T breast
[25] = system: CAKI-1 renal
[26] = system: EKVX NSCLC
[27] = system: MALME-3M melanoma
[28] = system: OVCAR-3 ovarian
[29] = system: HOP-92 NSCLC
[30] = system: A549 NSCLC
[31] = system: OVCAR-5 ovarian
[32] = system: HCT-116 colon
[33] = system: 786-0 renal
[34] = system: PC-3 prostate
[35] = system: NCI/ADR-RES ovarian
[36] = system: LOX IMVI melanoma
[37] = system: NCI-H460 lung
[38] = system: KM12 colon
[39] = system: DU-145 prostate
[40] = system: MDA-MB-231 breast
[41] = system: T-47D breast
[42] = system: UACC-257 melanoma
[43] = system: CCRF-CEM leukemia
[44] = system: HCC-2998 colon
[45] = system: MOLT-4 leukemia
[46] = system: HT29 colon
[47] = system: NCI-H23 lung
[48] = system: NCI-H226 lung
[49] = system: U251 CNS
[50] = system: ACHN renal
[51] = system: IGROV1 ovarian
[52] = system: OVCAR-4 ovarian
[53] = system: M14 melanoma
[54] = system: SF-295 CNS
[55] = system: SNB-75 CNS
[56] = system: HL-60(TB) leukemia
[57] = system: UACC-62 melanoma
[58] = system: RPMI-8226 leukemia
[59] = system: SK-MEL-28 melanoma

CCOc1ccccc1[C@H]1C(C(=O)c2ccc(Cl)cc2)C2(N[C@@H]1c1ccccc1)C(=O)Nc1ccc(Cl)cc12 (stereo partly drawn)
inactive: GI50 [1] 8.03 µM | GI50 [2] 13.8 µM | GI50 [3] 13.8 µM | GI50 [4] > 18.8 µM | GI50 [5] 13.9 µM | GI50 [6] 5.3 µM | GI50 [7] 6.01 µM | GI50 [8] 10.5 µM | GI50 [9] > 18.8 µM | GI50 [10] > 18.8 µM | GI50 [11] 6.2 µM | GI50 [12] > 18.8 µM | GI50 [13] 18.3 µM | GI50 [14] 16.2 µM | GI50 [15] 4.84 µM | GI50 [16] > 18.8 µM | GI50 [17] > 18.8 µM | GI50 [18] 13.4 µM | GI50 [19] > 18.8 µM | GI50 [20] > 18.8 µM | GI50 [21] > 18.8 µM | GI50 [22] 5.28 µM | GI50 [23] > 18.8 µM | GI50 [24] > 18.8 µM | GI50 [25] 4.11 µM | GI50 [26] 18.6 µM | GI50 [27] > 18.8 µM | GI50 [28] 7.8 µM | GI50 [29] 13 µM | GI50 [30] 8.86 µM | GI50 [31] > 18.8 µM | GI50 [32] 7.48 µM | GI50 [33] > 18.8 µM | GI50 [34] 5.51 µM | GI50 [35] > 18.8 µM | GI50 [36] 9.63 µM | GI50 [37] 7.56 µM | GI50 [38] 9.75 µM | GI50 [39] > 18.8 µM | GI50 [40] 15 µM | GI50 [41] 7.73 µM | GI50 [42] 8.85 µM | GI50 [43] 11.4 µM | GI50 [44] 6.18 µM | GI50 [45] 5.36 µM | GI50 [46] 14.4 µM | GI50 [47] 17.3 µM | GI50 [48] > 18.8 µM | GI50 [49] > 18.8 µM | GI50 [50] 8.05 µM | GI50 [51] 7.98 µM | GI50 [52] > 18.8 µM | GI50 [53] 12.3 µM | GI50 [54] 7.53 µM | GI50 [55] 2.84 µM | GI50 [56] 12.8 µM | GI50 [57] 3.93 µM | GI50 [58] 10.6 µM | GI50 [59] > 18.8 µM
> 18.8 µM: TGI [1] | TGI [2] | TGI [3] | TGI [4] | TGI [5] | TGI [6] | TGI [7] | TGI [8] | TGI [9] | TGI [10] | TGI [11] | TGI [12] | TGI [13] | TGI [14] | TGI [15] | TGI [16] | TGI [17] | TGI [18] | TGI [19] | TGI [20] | TGI [21] | TGI [22] | TGI [23] | TGI [24] | TGI [25] | TGI [26] | TGI [27] | TGI [28] | TGI [29] | TGI [30] | TGI [31] | TGI [32] | TGI [33] | TGI [34] | TGI [35] | TGI [36] | TGI [37] | TGI [38] | TGI [39] | TGI [40] | TGI [41] | TGI [42] | TGI [43] | TGI [44] | TGI [45] | TGI [46] | TGI [47] | TGI [48] | TGI [49] | TGI [50] | TGI [51] | TGI [52] | TGI [53] | TGI [54] | TGI [55] | TGI [56] | TGI [57] | TGI [58] | TGI [59]
